Legend:
Test in all cases: relative viability (nuclei count vs DMSO), 5 days (fraction); higher = more cells survive
[1] = compound: Cn1c(=O)n(-c2ccc(C(C)(C)C#N)cc2)c2c3cc(-c4cnc5ccccc5c4)ccc3ncc21 [Dactolisib] + CC(=O)Nc1cccc(-n2c(=O)n(C3CC3)c(=O)c3c(Nc4ccc(I)cc4F)n(C)c(=O)c(C)c32)c1 [Trametinib] (partner 0.02 µM)
Method in brief: (§1)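 After 5 days of treatment, lung cancer cells in 1536-well plates were fixed and stained in a single step (final 0.05% Triton X-100, 1% formaldehyde, 1 ug/ml Hoechst) and their nuclei counted on 4× images. Treatment had been applied by pin tool the day after seeding as one drug alone or as a fixed anchor-drug dose with five library-drug doses (not always all listed) in √10 steps. Relative viability is the nuclei count of treated wells divided by that of vehicle wells, and values are medians of duplicate plates.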

[2] = compound: Cn1c(=O)n(-c2ccc(C(C)(C)C#N)cc2)c2c3cc(-c4cnc5ccccc5c4)ccc3ncc21 [Dactolisib] + COc1cc2c(Oc3ccc(NC(=O)C4(C(=O)Nc5ccc(F)cc5)CC4)cc3F)ccnc2cc1OCCCN1CCOCC1 [Foretinib] (partner 0.25 µM)
Method in brief: as §1

[3] = compound: Cn1c(=O)n(-c2ccc(C(C)(C)C#N)cc2)c2c3cc(-c4cnc5ccccc5c4)ccc3ncc21 [Dactolisib] + CS(=O)(=O)N1CCN(Cc2cc3nc(-c4cccc5[nH]ncc45)nc(N4CCOCC4)c3s2)CC1 [Pictilisib] (partner 1 µM)
Method in brief: as §1

[4] = compound: C1CCC(CC1)N(CCNCCC2=C3C(=C(C=C2)O)NC(=O)CO3)C(=O)CCNCCC4=CC(=C(C=C4)Cl)Cl [AZ505] + Cc1nc(Nc2ncc(C(=O)Nc3c(C)cccc3Cl)s2)cc(N2CCN(CCO)CC2)n1 [Dasatinib] (partner 0.075 µM)
Method in brief: as §1

Cell Line	relative viability ([1]; first compound 0.002 µM)	relative viability ([1]; first compound 0.006325 µM)	relative viability ([1]; first compound 0.02 µM)	relative viability ([1]; first compound 0.06325 µM)	relative viability ([1]; first compound 0.2 µM)	relative viability ([2]; first compound 0.002 µM)	relative viability ([2]; first compound 0.006325 µM)	relative viability ([2]; first compound 0.02 µM)	relative viability ([2]; first compound 0.06325 µM)	relative viability ([2]; first compound 0.2 µM)	relative viability ([3]; first compound 0.002 µM)	relative viability ([3]; first compound 0.006325 µM)	relative viability ([3]; first compound 0.02 µM)	relative viability ([3]; first compound 0.06325 µM)	relative viability ([3]; first compound 0.2 µM)	relative viability ([4]; first compound 0.08 µM)	relative viability ([4]; first compound 0.253 µM)	relative viability ([4]; first compound 0.8 µM)	relative viability ([4]; first compound 2.53 µM)	relative viability ([4]; first compound 8 µM)
NCI-H1666	0.855	0.804	0.835	0.734	0.742	0.968	0.993	0.987	0.791	0.762	0.417	0.405	0.438	0.383	0.366	0.745	0.795	0.783	0.828	0.69
LC-2-ad	0.838	0.883	0.99	0.969	0.863	1.08	0.917	0.839	0.545	0.551	0.291	–	0.428	0.389	0.262	0.578	0.564	0.558	0.604	0.665
SW 1573	0.529	0.438	0.482	0.144	0.163	0.996	0.964	0.875	0.34	0.371	0.609	0.446	0.405	0.35	0.15	0.476	0.605	0.414	0.594	0.426
ChaGo-K-1	0.846	0.912	0.91	0.813	0.791	0.908	0.919	0.886	0.835	0.926	0.723	0.744	0.491	0.923	0.552	0.663	0.702	0.616	0.657	0.604
COR-L 105	0.43	0.413	0.4	0.425	0.394	0.926	1	0.832	0.859	0.417	0.423	0.364	0.377	0.332	0.305	0.383	0.352	0.318	0.342	0.367
NCI-H1975	0.36	0.292	0.323	0.191	0.161	1.06	0.897	0.715	0.454	0.334	0.26	0.27	0.232	0.2	0.175	0.343	0.358	0.425	0.343	0.495
NCI-H1993	0.514	0.455	0.504	0.389	0.421	0.706	0.774	0.61	0.473	0.492	0.99	0.85	0.804	0.705	0.834	0.653	0.722	0.611	0.623	0.737
RERF-LC-KJ	0.86	0.902	0.772	0.407	0.467	0.852	0.826	0.87	0.527	0.399	0.562	0.519	0.466	0.41	0.293	0.72	0.772	0.763	0.743	0.752
NCI-H23	0.468	0.361	0.276	0.229	0.179	1.17	0.997	0.69	0.456	0.413	0.503	0.529	0.37	0.252	0.23	0.721	–	0.722	0.797	0.877
HCC-366	0.367	0.299	0.238	0.107	0.101	0.914	0.986	0.955	0.94	0.368	0.201	0.147	0.124	0.0657	0.102	0.604	0.625	0.78	0.527	0.608
EMC-BAC-2	0.897	0.866	0.839	0.461	0.375	1.04	0.976	0.984	0.501	0.484	0.528	0.542	0.512	0.379	0.341	0.312	0.329	0.322	0.35	0.354
NCI-H2405	0.469	0.665	0.56	0.389	0.253	1.02	1.06	1.05	0.606	0.475	0.343	0.475	0.423	0.311	0.278	0.187	0.151	0.133	0.203	0.176
NCI-H358	0.123	0.149	0.124	0.104	0.106	0.738	0.769	0.623	0.312	0.165	0.345	0.302	0.337	0.196	0.215	0.226	0.145	0.192	0.115	0.167
NCI-H1944	0.429	0.408	0.364	0.23	0.22	1.13	0.914	0.852	0.425	0.392	0.36	0.334	0.305	0.233	0.253	0.212	0.188	0.246	0.203	0.224
EPLC-272H	0.264	0.261	0.28	0.245	0.201	0.623	0.491	0.467	0.308	0.236	0.316	0.239	0.332	0.373	0.24	–	0.371	0.315	0.265	0.344
NCI-H1915	0.32	0.296	0.304	0.229	0.178	1.19	1.06	1.08	0.832	0.467	1.01	0.952	0.944	0.513	0.483	0.28	0.298	0.269	0.275	0.337
NCI-H596	0.776	0.7	0.496	0.491	0.298	0.83	0.809	0.473	0.316	0.242	0.373	0.348	0.383	0.352	0.299	0.605	0.577	0.591	0.657	0.56
NCI-H322M	0.583	0.561	0.447	0.436	0.44	1.08	0.89	0.73	0.629	0.578	0.504	0.564	0.34	0.448	0.461	0.24	0.233	0.239	0.261	0.273
NCI-H2228	0.688	0.4	0.383	0.218	0.144	0.875	0.675	0.406	0.191	0.181	0.355	0.291	0.248	0.173	0.222	0.447	0.421	0.51	0.457	0.443
NCI-H647	0.381	0.42	0.291	0.118	0.103	1.15	1.18	1.16	0.211	0.395	0.448	0.407	0.409	0.227	0.151	0.233	0.104	0.158	0.194	0.162
SK-MES-1	0.581	0.528	0.467	0.355	0.263	1.04	0.818	0.906	0.571	0.397	0.391	0.356	0.297	0.337	0.182	0.373	0.402	0.302	0.353	0.36
NCI-H2170	0.925	0.881	0.845	0.478	0.35	0.995	1.01	0.895	0.85	0.174	0.305	0.311	0.289	0.22	0.224	0.541	0.608	0.444	0.695	0.509
NCI-H2085	0.712	0.455	0.241	0.266	0.231	1.09	1.05	0.747	0.337	0.301	0.372	0.472	0.352	0.332	0.396	0.246	0.242	0.234	0.252	0.237
NCI-H727	–	0.42	0.358	0.401	0.373	0.906	0.882	0.762	0.4	0.425	0.275	0.339	0.396	0.212	0.227	0.28	0.274	0.372	–	0.504
NCI-H441	0.523	0.412	0.43	0.217	0.213	1.14	1.04	0.961	0.432	0.382	0.758	0.464	0.412	0.285	0.233	0.35	0.619	0.659	0.549	0.694
LOU-NH91	0.778	0.714	0.679	0.557	0.612	0.897	0.921	0.9	0.658	0.548	0.586	0.499	0.525	0.494	0.496	0.536	0.537	0.452	0.53	0.601
NCI-H3122	0.207	0.218	0.232	0.219	0.176	0.932	0.934	1.05	1.03	0.855	0.59	0.608	0.575	0.442	0.336	0.729	0.829	0.806	0.661	0.899

— the supplement of paper PMC10307832
